Columns and labels:
[1] = test system: S. Aureus Smith; assay: In vitro antibacterial activity, MIC (modified Autotiter method); assay type: cell-based, Staphylococcus aureus; details: 18-20 hours at 37° C.; for MIC: Staphylococcus aureus, 20 h, read-out: MIC S. Aureus Smith
Description: (§1) The antibacterial and antifungal activity of representative examples of the compounds of Formula I was determined using a modification of the Autotiter method described by Goss, et al. Applied Microbiology 16 (9) 1,414-1,416 (1968) in which a 1,000 mcg./ml. solution of the test compound is prepared. To the first cup of the Autotray is added 0.1 ml. of the test solution. Activation of the Autotiter initiates a sequence of operations by which 0.05 ml. of the test compound solution is withdrawn from the cup by a Microtiter transfer loop and diluted in 0.05 ml. of sterile water. Following this operation, 0.05 ml. of inoculated double-strength semisynthetic medium (glucose) is added automatically to each cup. The overall operation results in final drug concentrations ranging from 500 to 0.06 mcg./ml. in twofold decrements. […] The compounds were thus tested as solutions against a variety of gram positive and gram negative bacteria including Staphylococcus aureus, Proteus mirabilis, Escherichia coli, Klebsiella pneumoniae, Pseudomonas aeruginosa, Streptococcus pyogenes, and against such fungi as Aspergillus niger, Candida albicans and Trichophyton mentagrophytes.

[2] = test system: E. coli 100/B22; assay: as above; assay type: cell-based, Escherichia coli; details: 18-20 hours at 37° C.; for MIC: Escherichia coli, 100/B22, 20 h, read-out: MIC E. coli 100/B22
Description: as §1

[3] = test system: E. coli AB1932-1; assay: as above; assay type: cell-based, Escherichia coli; details: 18-20 hours at 37° C.; for MIC: Escherichia coli, AB19321, 20 h, read-out: MIC E. coli AB1932-1
Description: as §1

[4] = test system: E. coli Vogel; assay: as above; assay type: cell-based, Escherichia coli; details: 18-20 hours at 37° C.; for MIC: Escherichia coli, 20 h, read-out: MIC E. coli Vogel
Description: as §1

[5] = test system: K. pneum. 39645; assay: as above; assay type: cell-based, Klebsiella pneumoniae; details: 18-20 hours at 37° C.; for MIC: Klebsiella pneumoniae, 20 h, read-out: MIC K. pneum. 39645
Description: as §1

[6] = test system: P. mirab. MGH-1; assay: as above; assay type: cell-based, Proteus mirabilis; details: 18-20 hours at 37° C.; for MIC: Proteus mirabilis, 20 h, read-out: MIC P. mirab. MGH-1
Description: as §1

[7] = test system: Ps. aerug. MGH-2; assay: as above; assay type: cell-based, Pseudomonas aeruginosa; details: 18-20 hours at 37° C.; for MIC: Pseudomonas aeruginosa, 20 h, read-out: MIC Ps. aerug. MGH-2
Description: as §1

[8] = test system: S. pyogen. C203; assay: as above; assay type: cell-based, Streptococcus pyogenes; details: 18-20 hours at 37° C.; for MIC: Streptococcus pyogenes, 20 h, read-out: MIC S. pyogen. C203
Description: as §1

[9] = test system: A. niger 16404; assay: In vitro antifungal activity, MIC (modified Autotiter method); assay type: cell-based, Aspergillus niger; details: 18-20 hours at 37° C.; for MIC: Aspergillus niger, 16404, 20 h, read-out: MIC A. niger 16404
Description: as §1

[10] = test system: C. albicans 10231; assay: as above; assay type: cell-based, Candida albicans; details: 18-20 hours at 37° C.; for MIC: Candida albicans, 10231, 20 h, read-out: MIC C. albicans 10231
Description: as §1

[11] = test system: C. albicans Wisc.; assay: as above; assay type: cell-based, Candida albicans; details: 18-20 hours at 37° C.; for MIC: Candida albicans, 20 h, read-out: MIC C. albicans Wisc.
Description: as §1

[12] = test system: T. menta. 9129; assay: as above; assay type: cell-based, Trichophyton mentagrophytes; details: 18-20 hours at 37° C.; for MIC: Trichophyton mentagrophytes, 20 h, read-out: MIC T. menta. 9129
Description: as §1

SMILES | MIC [1] | MIC [2] | MIC [3] | MIC [4] | MIC [5] | MIC [6] | MIC [7] | MIC [8] | MIC [9] | MIC [10] | MIC [11] | MIC [12] | further results
CCCCCCCCNc1cc[n+](CCCCCCCCCCCCCC[n+]2ccc(NCCCCCCCC)cc2)cc1 [Example 46, 1,14-bis-[4-(octylamino)-1-pyridinium]tetradecane dibromide] | 1 µg/mL | 3.9 µg/mL | 3.9 µg/mL | 7.8 µg/mL | 7.8 µg/mL | 3.9 µg/mL | 3.9 µg/mL | 1.95 µg/mL | 15.6 µg/mL | 7.8 µg/mL | 7.8 µg/mL | 1.95 µg/mL | –
CCCCCCCCCNc1cc[n+](CCCCCC[n+]2ccc(NCCCCCCCCC)cc2)cc1 [Example 47, 1,6-bis-[4-(nonylamino)-1-pyridinium]-hexane dibromide] | 0.5 µg/mL | 1.95 µg/mL | 1.95 µg/mL | 1 µg/mL | 3.9 µg/mL | 3.9 µg/mL | 15.6 µg/mL | 1 µg/mL | – | 3.9 µg/mL | 1.95 µg/mL | 1 µg/mL | MIC A. niger 16404 [9]: 15.6 µg/mL
CCCCCCCCCNc1cc[n+](CCCCCC[n+]2ccc(NCCCCCCCCC)cc2)cc1 [Example 48] | – | – | – | – | – | – | – | – | – | – | – | – | MIC S. Aureus Smith [1]: 1.0 µg/mL; MIC E. coli 100/B22 [2]: 1.95 µg/mL; MIC E. coli AB1932-1 [3]: 1.95 µg/mL; MIC E. coli Vogel [4]: 1.95 µg/mL; MIC K. pneum. 39645 [5]: 3.9 µg/mL; MIC P. mirab. MGH-1 [6]: 7.8 µg/mL; MIC Ps. aerug. MGH-2 [7]: 15.6 µg/mL; MIC S. pyogen. C203 [8]: 1.0 µg/mL; MIC A. niger 16404 [9]: 3.9 µg/mL; MIC C. albicans 10231 [10]: 1.95 µg/mL; MIC C. albicans Wisc. [11]: 1.95 µg/mL; MIC T. menta. 9129 [12]: 1.0 µg/mL
CCCCCCCCCNc1cc[n+](CCCCCCC[n+]2ccc(NCCCCCCCCC)cc2)cc1 [Example 49, 1,7-bis-[4-(nonylamino)-1-pyridinium]heptane dibromide] | 0.5 µg/mL | 1.95 µg/mL | 1.95 µg/mL | 1 µg/mL | 1.95 µg/mL | 3.9 µg/mL | 15.6 µg/mL | 1 µg/mL | 7.8 µg/mL | 1.95 µg/mL | 1.95 µg/mL | 1 µg/mL | –
CCCCCCCCCNc1cc[n+](CCCCCCCCC[n+]2ccc(NCCCCCCCCC)cc2)cc1 [Example 50, 1,9-bis-[4-(nonylamino)-1-pyridinium]nonane dibromide] | 1.95 µg/mL | 1.95 µg/mL | 3.9 µg/mL | 1.95 µg/mL | 3.9 µg/mL | 3.9 µg/mL | 3.9 µg/mL | 1.95 µg/mL | 7.8 µg/mL | 3.9 µg/mL | 3.9 µg/mL | 1.95 µg/mL | –
CCCCCCCCCNc1cc[n+](CCCCCCCCCC[n+]2ccc(NCCCCCCCCC)cc2)cc1 [Example 51, 1,10-bis-[4-(nonylamino)-1-pyridinium]decane dibromide] | 1.95 µg/mL | 3.9 µg/mL | 3.9 µg/mL | 1.95 µg/mL | 3.9 µg/mL | 3.9 µg/mL | 3.9 µg/mL | 1.95 µg/mL | 7.8 µg/mL | 3.9 µg/mL | 3.9 µg/mL | 1.95 µg/mL | –
CCCCCCCCCNc1cc[n+](CCCCCCCCCCCC[n+]2ccc(NCCCCCCCCC)cc2)cc1 [Example 52, 1,12-bis-[4-(nonylamino)1-pyridinium]dodecane dibromide] | 1.95 µg/mL | 3.9 µg/mL | 7.8 µg/mL | 3.9 µg/mL | 3.9 µg/mL | 3.9 µg/mL | 3.9 µg/mL | 1.95 µg/mL | 15.6 µg/mL | 7.8 µg/mL | 7.8 µg/mL | 1.95 µg/mL | –
